Measurements taken from patent US12241902B2, “Probes for detection of copper” (The Regents of the University of California, priority 2019, dated 2025).

What was measured:
[1] = tested on: labile Cu(I) in Ctr1^−/− MEFs; test: Confocal fluorescence imaging of labile Cu(I) in Ctr1-/- MEFs; assay type: cell-based, mouse
Experimental: (A) Confocal fluorescence microscopy images of Ctr1^+/+ MEFs and Ctr1^−/− MEFs treated with solvent control, CuCl2 (100 or 300 μM) or BCS (500 μM) in complete medium for 8 h, washed with complete medium and PBS, incubated with FCP-1 (5 μM) in DPBS for 45 min, and then imaged with λex=458 nm. (B) Average cellular ratiometric emission ratios of FCP-1, Fgreen/Forange, as determined from experiments performed in triplicate. (C) Total cellular ^63Cu levels were determined by ICP-MS experiments (with normalization of different cell numbers by total cellular ^31P level). (D) Confocal fluorescence microscopy images of Ctr1^+/+ MEFs and Ctr1^−/− MEFs incubated with FL-TPA (5 μM) in DPBS for 45 min. The cells were then imaged with λex=488 nm. (E) Average cellular fluorescence intensity of FL-TPA, FFL-TPA, determined from experiments performed in triplicate with λex=488 nm. Error bars denote SD (n=3). *p<0.05, **p<0.01 and ***p<0.001.
Cell culture. Following cell cultures were grown: Human embryonic kidney (HEK 293T) cells were maintained in Dulbecco's Modified Eagle Medium (DMEM) supplemented with 10 vol % fetal bovine serum (FBS), 1 vol % GlutaMax (Gibco) and 1 vol % non-essential amino acids (NEAA, Gibco). Ctrl1^+/+ and Ctr1^−/− MEF cells were maintained in DMEM with 10 vol % FBS, 1 vol % non-essential amino acids, 1 vol % sodium pyruvate and 0.1 vol % 2-mercaptoethanol or DMEM supplemented with 10 vol % FBS and 1× Penicillin-Streptomycin. Human cervical epithelial carcinoma (HeLa) was maintained in DMEM medium supplemented with 1 vol % GlutaMAX and 10 vol % FBS. […]
(§1) Confocal fluorescence microscopy imaging. For confocal fluorescence imaging experiments of HEK293T, MEF Ctr1^+/+ and Ctr1^−/− and HeLa cells, the cells were plated on 8-well Lab Tek borosilicate chambered coverglass slides (Nunc), and allowed to grow to ca. 60% confluency before performing the cell imaging experiments. […] For quantification, a threshold value was set as background and the average intensity of the whole image was measured by ImageJ. […]

[2] = tested on: labile Cu(I) pools in HeLa cells; test: Ratiometric confocal fluorescence imaging of labile Cu(I) in HeLa cells under redox stress; assay type: cell-based, Human; details: FCP-1 5 μM
Experimental: Confocal fluorescence microscopy images of HeLa cells pretreated with (A) solvent control, CuCl2 (200 or 300 μM), or BCS (100 μM) in complete medium for 18 h, or (B) solvent control, ascorbate (1 mM), or BSO (1 mM) in complete medium for 4 h. The cells were then washed with PBS, incubated with FCP-1 (5 μM) in DPBS for 45 min and imaged with λex=458 nm. The bar charts show average cellular ratiometric FCP-1 emission, Fgreen/Forange, determined from experiments performed in triplicate. (C) Total cellular ^63Cu levels were determined by ICP-MS experiments (with normalization of different cell numbers by total cellular ^31P level). […]
as §1
In view of the oxidation state-specificity of FCP-1 toward Cu(I), the impact of cellular redox status on labile Cu(I) pools was examined First, the ability of FCP-1 to detect changes in labile Cu(I) levels in HeLa cells with CuCl2 and BCS treatments was evaluated (FIG. 16A). […]

## CC[N+](CC)=c1ccc2c(-c3ccccc3C(=O)O)c3ccc(N4CCN(Cc5cccc(CN(Cc6ccccn6)Cc6cccc(COc7ccc8c(-c9ccccc9C(=O)OC)c9ccc(=O)cc-9oc8c7)n6)n5)CC4)cc3oc-2c1 [FCP-1]
[1]; Ctr1−/− MEFs (FIG. 14)
  cellular viability by nuclear stain DRAQ5: cellular viability was maintained
[1]; Ctr1−/− MEFs incubated with CuCl2
  Fgreen/Forange ratio after CuCl2: no statistically significant changes
[1]; Ctr1−/− MEFs, BCS (500 μM)
  Fgreen/Forange ratio after BCS: reduction in Fgreen/Forange ratio
[2]; BSO 1 mM 4 h
  Fgreen/Forange ratio in BSO-treated cells compared to control: higher
[2]; ascorbate 1 mM 4 h
  Fgreen/Forange ratio in ascorbate-treated cells compared to control: statistically significant increase
